Consider nine molecules from publication PMC9431032, “Boosting Cosmeceutical Peptides: Coupling Imidazolium-Based Ionic Liquids to Pentapeptide-4 Originates New Leads with Antimicrobial and Collagenesis-Inducing Activities” (Microbiology Spectrum, 2022).

Data set [1] deals with HFF-1 cells (human foreskin fibroblasts). The class given is cell-based. The following applies: 24 h. On the procedure:
(§1) The cytotoxicity of KTTK(C16Im)S and C16Im-KTTKS conjugates was assessed on human foreskin fibroblasts (HFF-1) and human immortalized keratinocytes (HaCaT). […] In turn, the parent IL [C16 M1Im][Br] and its […] equimolar mixture with PP4, KTTKS:[C16 M1Im][Br]
(§2) (iv) Toxicity to human cells. HaCat and HFF-1 were seeded at 4 × 10^4cell/mL in 96-well plate using in Dulbecco’s Modified Eagle Medium (DMEM; CLS) supplemented with 2% FBS (Biowest) and 1% of antibiotic/antimycotic solution (100 units/mL of penicillin, 10 mg/mL of streptomycin, and 0.25 mg/mL of amphotericin B, Sigma-Aldrich). The plate was incubated at 37°C in a 5% CO2 atmosphere, and the cells allowed to grow until confluence was reached. Then, solutions of the test compounds in DMEM supplemented with 2% FBS, in a concentration range between 6.3 and 100 μM, were added to the wells. After 24 h of incubation at 37°C in a 5% CO2 atmosphere, the cell viability was assessed through the resazurin reduction assay. Briefly, the medium was removed and then 20 μL of the alamarBlue Cell Viability Reagent (Resazurin sodium salt, Sigma-Aldrich) at 0.15 mg/mL in 100 μL of Hank’s Balanced Salt Solution (HBSS; Sigma-Aldrich) were added to each well; the plate was next incubated for 2 h at 37°C in a 5% CO2 atmosphere, after which fluorescence was read at 560/590 nm on a Flex Station 3 multi-mode microplate reader (Molecular Devices) ([53]). The IC50 values were thus determined using the GraphPad Prism 9.0 software, by applying the equation log(inhibitor) versus response with variable slope (four parameters).

Data set [2] deals with HaCaT cells (human immortalized keratinocytes). As to the kind of experiment: cells. The class given is cell-based. On the procedure:
as §1, §2

The format of data set [3] is physicochemical. On the procedure:
(§3) The antimicrobial activity of the IL-KTTKS conjugates was assessed in vitro against reference bacterial strains (American Type Culture Collection, ATCC). The minimal inhibitory concentration (MIC) was determined according to the Clinical and Laboratory Standards Institute (CLSI) guidelines ([28]) against Gram-positive (S. aureus, Enterococcus faecalis) and Gram-negative (Escherichia coli, Pseudomonas aeruginosa) bacteria.
(vi) Quantitation of final peptides and their IL conjugates. Peptide stock solutions were prepared at approximately 10 mg/mL in distilled water except for C16-KTTKS-OH that was solubilized in DMSO. Accurate quantitation of the peptide solutions were quantitated by microvolume spectrophotometry at 205 nm, using a Thermo Scientific NanoDrop One system and quantitation method 31 that assumes an extinction coefficient ε205 of 31 mL·mg^−1·cm^−1 ([50]). […] To this end, the peptide was hydrolyzed using 6 M aqueous hydrochloric acid containing phenol (10% vol/vol), for 24 h at 110°C. The hydrolysate was next evaporated to dryness and the residue dissolved in HPLC-grade water (500 μL) containing α-aminobutyric acid as internal standard. The mixture thus obtained was then derivatized by the AccQ-Tag protocol from Waters using 6-aminoquinoyl-N-hydroxysuccinimidyl carbamate ([51]), and the resulting solution analyzed by HPLC (WATERS 600) with the UV-detector (WATERS 2487) set at 254 nm.

Another data set has as its system E. coli ATCC 25922. As to the kind of experiment: microbe, parasite or virus in culture. On the procedure:
as §3
(§4) (i) Antibacterial activity in standard conditions. The test conjugates and reference compounds were evaluated for their activity against three reference strains of Gram-negative bacteria, namely, E. coli (ATCC 25922), Pseudomonas aeruginosa (ATCC 27853), and Klebsiella pneumoniae (ATCC 13883), and the four following reference strains of Gram-positive bacteria, Staphylococcus aureus (ATCC 29213), S. Epidermidis (ATCC 14990), E. faecalis (ATCC 29212), and Streptococcus pyogenes (ATCC 19615). […] MBC values were also determined as previously reported ([52]).

A further data set relates to P. aeruginosa ATCC 27853. The data set can be described thus: microbe, parasite or virus in culture. On the procedure: as §3, §4
For another data set, the system named is S. aureus ATCC 29213. As to the kind of experiment: microbe, parasite or virus in culture. The method, then: as §3, §4
The test system of the next data set is E. faecalis ATCC 29212. As to the kind of experiment: microbe, parasite or virus in culture. The method, then:
as §3, §4

The test system of the next data set is K. pneumonia ATCC 138830. As to the kind of experiment: microbe, parasite or virus in culture. The following applies: Klebsiella pneumoniae, ATCC138830. The method, then: as §3, §4
In a further data set the test system is C. albicans ATCC 90028. As to the kind of experiment: microbe, parasite or virus in culture. The note with it: Candida albicans, ATCC90028. On the procedure: (§5) The MIC values were determined according to the European Committee on Antimicrobial Susceptibility Testing (EUCAST) protocol ([36]) and are shown on Table 4.
(§6) (iii) Antifungal activity.

Data set [4] relates to C. parapsilosis ATCC 22019. The data set can be described thus: microbe, parasite or virus in culture. The note with it: Lodderomyces parapsilosis, ATCC22019. On the procedure: as §5, §6
The subject of a further data set is C. glabrata ATCC 90030. The data set can be described thus: microbe, parasite or virus in culture. The following applies: Nakaseomyces glabratus, ATCC90030. The method, then:
as §5, §6

The mark [5] stands for this setting: E. coli ATCC 25922, broth microdilution in cation-adjusted MHB2, CLSI, n = 3.
Where [6] appears, read: P. aeruginosa ATCC 27853, broth microdilution in cation-adjusted MHB2, CLSI, n = 3.
Setting [7] is: S. aureus ATCC 29213, broth microdilution in cation-adjusted MHB2, CLSI, n = 3.
Where [8] appears, read: E. faecalis ATCC 29212, broth microdilution in cation-adjusted MHB2, CLSI, n = 3.
Setting [9] is: Staphylococcus aureus, ATCC29213.
The mark [10] stands for this setting: Enterococcus faecalis, ATCC29212.

As usually defined, the IC50 is the concentration needed to halve the response being measured.

Converted amounts (≈) assume the structure as drawn. “And” between values parts separate entries of the source, which are not always exact repeats. Equal values may be shown once. Read-outs that look alike come from different tables or passages of the source. Peptide text beside a SMILES is read from it. * marks the point of attachment. X2 = Cn1cc[n+](Cc2cn(CC(=O)*)nn2)c1; Palmitoyl = CCCCCCCCCCCCCCCC(=O)*

`CCCCCCCCCCCCCCCC(=O)N[C@@H](CCCCN)C(=O)N[C@H](C(=O)N[C@H](C(=O)N[C@@H](CCCCN)C(=O)N[C@@H](CO)C(=O)O)[C@@H](C)O)[C@@H](C)O` [Peptide C16-KTTKS-OH] (Palmitoyl-KTTKS-OH) showed a concentration for half-maximal inhibition (IC50) in [1] of 79.7 ± 2.82 µM. This molecule also had an IC50 in data set [2] (24 h) above 100 µM. Moreover, in data set [3], the “Behaviour when diluted in cation-adjusted Mueller-Hinton broth (MHB2)” value is reported as “precipitated”, the Solubility in water entry was “poor solubility in water” and the “Solvent in which the peptide was soluble” value is listed as “dimethyl sulfoxide (DMSO)”.
As to `C[C@@H](O)[C@H](NC(=O)[C@H](CCCCN)NC(=O)Cn1cc(C[n+]2ccn(C)c2)nn1)C(=O)N[C@H](C(=O)N[C@@H](CCCCN)C(=O)N[C@@H](CO)C(N)=O)[C@@H](C)O` [MeIm-KTTKS] (X2-KTTKS-NH2), the MIC in the data set on E. coli ATCC 25922 (setting [5]) was > 825.9 μM and > 633.4 μg/mL; in the data set with P. aeruginosa ATCC 27853 (setting [6]), > 825.9 μM and > 633.4 μg/mL; against S. aureus ATCC 29213 (setting [7]), > 825.9 μM and > 633.4 μg/mL; against E. faecalis ATCC 29212 (setting [8]), > 825.9 μM and > 633.4 μg/mL.
“C16-KTTKS-NH2 [C-terminal carboxamide analogue of Matrixyl]”: in data set [3], the “Behaviour when diluted in cation-adjusted Mueller-Hinton broth (MHB2)” value was “precipitated” and the “Solvent in which the peptide was soluble” value is reported as “water”.
In the case of `C[C@@H](O)[C@H](NC(=O)[C@@H](NC(=O)[C@@H](N)CCCCn1cc(C[n+]2ccn(C)c2)nn1)[C@@H](C)O)C(=O)N[C@@H](CCCCN)C(=O)N[C@@H](CO)C(N)=O` [K(MeIm)TTKS], the MIC with E. coli ATCC 25922 (setting [5]) is > 1030.1 μM and > 731.2 μg/mL; in the data set on P. aeruginosa ATCC 27853 (setting [6]) it was > 1030.1 μM and > 731.2 μg/mL; in the data set on S. aureus ATCC 29213 (setting [7]), > 1030.1 μM and > 731.2 μg/mL; against E. faecalis ATCC 29212 (setting [8]) it was > 1030.1 μM and > 731.2 μg/mL.
As for `C[C@@H](O)[C@H](NC(=O)[C@@H](NC(=O)[C@@H](N)CCCCn1cc(C[n+]2ccn(C)c2)nn1)[C@@H](C)O)C(=O)N[C@@H](CCCCn1cc(C[n+]2ccn(C)c2)nn1)C(=O)N[C@@H](CO)C(N)=O` [K(MeIm)TTK(MeIm)S], the MIC is > 1245.5 μM and > 1067.4 μg/mL against E. coli ATCC 25922 (setting [5]); > 1245.5 μM and > 1067.4 μg/mL in the data set with P. aeruginosa ATCC 27853 (setting [6]); > 1245.5 μM and > 1067.4 μg/mL in the data set with S. aureus ATCC 29213 (setting [7]); > 1245.5 μM and > 1067.4 μg/mL in the data set on E. faecalis ATCC 29212 (setting [8]).
For the molecule `C[C@@H](O)[C@H](NC(=O)[C@@H](NC(=O)[C@@H](N)CCCCN)[C@@H](C)O)C(=O)N[C@@H](CCCCn1cc(C[n+]2ccn(C)c2)nn1)C(=O)N[C@@H](CO)C(N)=O` [KTTK(MeIm)S], the MIC in the data set with E. coli ATCC 25922 (setting [5]) was > 954.2 μM and > 677.3 μg/mL; with P. aeruginosa ATCC 27853 (setting [6]), > 954.2 μM and > 677.3 μg/mL; against S. aureus ATCC 29213 (setting [7]), > 954.2 μM and > 677.3 μg/mL; against E. faecalis ATCC 29212 (setting [8]) it was > 954.2 μM and > 677.3 μg/mL.
With `CCCCCCCCCCCCCCn1cc[n+](Cc2cn(CCCC[C@H](NC(=O)[C@@H](NC(=O)[C@@H](NC(=O)[C@@H](N)CCCCN)[C@@H](C)O)[C@@H](C)O)C(=O)N[C@@H](CO)C(N)=O)nn2)c1` [KTTK(C14Im)S], the MIC was 29.5 μM and 26.3 μg/mL with E. coli ATCC 25922 (setting [5]); 58.9 μM and 52.6 μg/mL with P. aeruginosa ATCC 27853 (setting [6]); 29.5 μM and 26.3 μg/mL in the data set on S. aureus ATCC 29213 (setting [7]); 58.9 μM and 52.6 μg/mL in the data set on E. faecalis ATCC 29212 (setting [8]).
Take `CCCCCCCCCCCCCCCCn1cc[n+](C)c1` [[C16 M1Im][Br], 1-hexadecyl-3-methylimidazolium bromide, reference compound]: the MIC in the data set on K. pneumonia ATCC 138830 was 60 µM; in the data set with E. coli ATCC 25922 (Escherichia coli, ATCC25922), 60 µM; against P. aeruginosa ATCC 27853 (Pseudomonas aeruginosa, ATCC27853), above 240 µM; against S. aureus ATCC 29213 (setting [9]), 0.94 µM; against E. faecalis ATCC 29212 (setting [10]), 0.94 µM; in the data set with C. albicans ATCC 90028, 0.93 µM. Besides, the MIC (in data set [4]; against C. glabrata ATCC 90030) was 0.93 µM in each case. In addition, the MBC with S. aureus ATCC 29213 (setting [9]) is 30 µM; in the data set with E. faecalis ATCC 29212 (setting [10]), 15 µM. The IC50 in data set [2] (Homo sapiens, HaCaT, 24 h incubation, 6.3-100 μM, resazurin, mean ± SEM of 2 independent experiments (n = 8), read-out: IC50 ± SEM) is 6.27 ± 1.02 µM.
Take `OC(Cn1cncn1)(Cn1cncn1)c1ccc(F)cc1F` [Fluconazole, reference compound]: the MIC against C. albicans ATCC 90028 was found to be 1.6 µM (≈ 0.49 µg/mL); in data set [4] it was 6.5 µM (≈ 1.99 µg/mL); against C. glabrata ATCC 90030 it was 26 µM (≈ 7.96 µg/mL).
